Entries after “also recorded” stand apart in the source; their conditions may differ. Read-outs that look alike come from different tables or passages of the source.
Columns and labels:
vitamin D receptor (VDR) = assay: Vitamin D-inducible growth hormone production in transfected COS-1 cells; assay type: cell-based, Green monkey; settings: for Total GH Production: averages of duplicate determinations
Procedure: The biological activity in vitro of chemically synthesized 1α,24(S)-(OH)2D2 and 1α,24(R)-(OH)2D2 was measured using a vitamin D-dependent transcriptional activation model system in which a vitamin D receptor (VDR)-expressing plasmid pSG5-hVDR1/3 and a plasmid p(CT4)^4TKGH containing a Growth Hormone (GH)-gene, under the control of a vitamin D-responsive element (VDRE) were co-transfected into Green monkey kidney, COS-1 cells. DNA's for these two vectors were supplied by Dr. Mark Haussler, Department of Biochemistry, University of Arizona, Tucson, Ariz.
Transfected cells were incubated with vitamin D metabolites and growth hormone production was measured.

bovine thymus VDR = biological target: T1, bovine thymus VDR (Bos taurus, UniProt Q28037); assay: Radioreceptor assay, displacement of 3H-1α,25-(OH)2D3 tracer from bovine thymus VDR; assay type: binding
T1 construct: commercially available reagents of bovine thymus VDR; purchased Incstar (Stillwater, Minn.); host or cells: bovine thymus
T1 sequence (Q28037 1-426): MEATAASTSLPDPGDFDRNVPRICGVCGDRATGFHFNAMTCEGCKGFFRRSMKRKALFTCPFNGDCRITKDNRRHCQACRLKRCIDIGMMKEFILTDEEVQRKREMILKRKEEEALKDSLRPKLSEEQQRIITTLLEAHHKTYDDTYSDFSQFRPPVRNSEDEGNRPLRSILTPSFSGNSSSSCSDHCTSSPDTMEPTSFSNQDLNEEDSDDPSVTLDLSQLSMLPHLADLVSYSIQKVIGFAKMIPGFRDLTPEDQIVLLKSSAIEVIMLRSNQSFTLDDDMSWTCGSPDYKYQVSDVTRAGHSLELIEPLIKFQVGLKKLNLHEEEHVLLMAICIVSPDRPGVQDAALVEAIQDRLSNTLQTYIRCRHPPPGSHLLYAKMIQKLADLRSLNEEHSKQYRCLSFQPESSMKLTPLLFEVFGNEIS
Procedure: Purified 1α,24(S)-(OH)2D2 was quantitated by photodiode array spectrophotometry and assayed in the radioreceptor assay.
The purified 1α,24(R)-(OH)2D2 and 1α,24(S)-(OH)2D2 epimers were quantitated by ultraviolet spectroscopy.
The binding affinities of the environmentally exposed compounds, crystalline 1α,24-dihydroxyvitamin D2 and powdered 1α,24-dihydroxyvitamin D2, to the vitamin D receptor (VDR) were assessed using methods known in the art, as described, e.g., in Example 6. […] The percent bound versus amount of compound in pg/tube are graphed in FIG. 5.

[1] = Hypocalcemia and metabolic bone disease in chronic hemodialysis patients; assay type: in vivo, human; settings: greater than 3.0 μg/day
Procedure: A twelve-month, double-blind, placebo-controlled clinical trial is conducted with thirty men and women with renal disease who are undergoing chronic hemodialysis. All patients enter an 8-week control period during which time they receive a maintenance dose of Vitamin D3 (400 IU/day). After this control period, the patients are randomized into two treatment groups: one group receives a constant dosage of 1α,24(S)-dihydroxyvitamin D2 (u.i.d.; a dosage greater than 3.0 μg/day) and the other group receives a matching placebo. Both treatment groups receive a maintenance dosage of Vitamin D3, maintain a normal intake of dietary calcium, and refrain from using calcium supplements. Efficacy is evaluated by pre- and post-treatment comparisons of the two patient groups with regard to (a) direct measurements of intestinal calcium absorption, (b) total body calcium retention, (c) radial and spinal bone mineral density, or (d) determinations of serum calcium. Safety is evaluated by regular monitoring of serum calcium.

[2] = biological target: T2, vitamin D serum binding protein (DBP) (Rattus norvegicus, UniProt P04276); assay: Affinity for vitamin D serum binding protein using vitamin D deficient rat serum
T2 construct: assessed using vitamin D deficient rat serum; from tissue; host or cells: vitamin D deficient rat serum
T2 sequence (P04276 17-476): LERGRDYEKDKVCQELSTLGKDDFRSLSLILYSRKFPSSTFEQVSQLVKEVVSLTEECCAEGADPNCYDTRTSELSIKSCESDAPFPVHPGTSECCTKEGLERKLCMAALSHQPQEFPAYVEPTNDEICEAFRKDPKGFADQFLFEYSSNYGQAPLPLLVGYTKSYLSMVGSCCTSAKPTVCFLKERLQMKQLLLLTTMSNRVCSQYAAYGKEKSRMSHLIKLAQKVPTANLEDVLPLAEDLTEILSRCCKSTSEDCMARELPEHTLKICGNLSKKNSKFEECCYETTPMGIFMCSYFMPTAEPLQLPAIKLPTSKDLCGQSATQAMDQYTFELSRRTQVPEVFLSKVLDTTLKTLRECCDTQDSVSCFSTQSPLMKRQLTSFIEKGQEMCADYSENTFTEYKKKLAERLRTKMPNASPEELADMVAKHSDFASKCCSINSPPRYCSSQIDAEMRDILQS
Text: In addition, the weak binding by the DBP was indicative of more rapid clearance, allowing for low toxicity.

HL-60 promyelocytes = assay: HL-60 cell differentiation assay; assay type: cell-based; settings: dose-response study
Procedure: A dose-response study is conducted with 1α,24(S)-(OH)2D2 in the HL-60 cell differentiation assay as described by DeLuca and Ostrom (DeLuca, H. F. and Ostrem, V. K., Prog. Clin. Biol. Res., vol. 259, pp. 41-55 (1988)). In this study, 1α,25-(OH)2D3 is used as a positive control and appropriate solvents are used as negative controls. The following variables are evaluated: nonspecific acid esterase activity, nitroblue tetrazolium (NBT) reduction, and thymidine incorporation.

[3] = Blood metabolite levels in osteoporotic women administered 1α-OH-D2; assay type: in vivo, human
Procedure: An increase in the production of 1α,24(S)-(OH)2D2 relative to 1α,25-(OH)2D2 has also been observed by the present inventors in human females who received 1α-OH-D2 as part of an investigation of that drug for the treatment of osteoporosis. Following either a single dose of 2 μg of 1α-OH-D2 or daily doses of 8 μg/day for one week, blood was collected and analyzed for the metabolites 1α,24(S)-(OH)2D2 and 1α,25-(OH)2D2. Lipid was extracted from the blood, and the metabolites were purified by HPLC using standard methods and quantified with the radioreceptor assay produced by Incstar (Stillwater, Minn.). One day after a single 2 μg dose, the level of 1α,24(S)-(OH)2D2 was undetectable with the 1α,25-(OH)2D2 level being approximately 11 pg/ml. In contrast, one day following the last dose of 8 μg, the level of 1α,24(S)-(OH)2D2 averaged 9 pg/mL with the 1α,25-(OH)2D2 level averaging 30 pg/mL.

C=C1/C(=C\C=C2/CCC[C@]3(C)[C@@H]([C@H](C)/C=C/[C@@](C)(O)C(C)C)CC[C@@H]23)C[C@@H](O)C[C@@H]1O [1α,24(S)-(OH)2D2, 1α,24(S)-dihydroxyvitamin D2]
Net vitamin D-inducible GH-production (vitamin D receptor (VDR); inducer 5 × 10^−9 M): 1306 ng/mL | Total GH Production (vitamin D receptor (VDR); inducer 5 × 10^−9 M): 1350 ng/mL | Net vitamin D-inducible GH-production (vitamin D receptor (VDR); inducer 5 × 10^−10 M): 381 ng/mL | Total GH Production (vitamin D receptor (VDR); inducer 5 × 10^−10 M): 425 ng/mL | affinity for VDR relative to 1α,25-(OH)2D3 (bovine thymus VDR): two-fold lower affinity; also recorded: two-fold less competitive | IC50 (bovine thymus VDR; radioreceptor assay, Incstar kit, read-out: half-maximal binding (converted)): ~350 pM | intestinal calcium absorption ([1]; double-isotope technique): significantly increases intestinal calcium absorption | incidence of hypercalcemia ([1]; twelve months): insignificant incidence of hypercalcemia | serum calcium levels ([1]; twelve months): normalized serum calcium levels | total body calcium and radial and spinal bone densities relative to baseline ([1]; twelve months): stable values for total body calcium, and stable radial and spinal bone densities | binding affinity for the vitamin D serum binding protein (in words) [2]: relatively poor binding affinity | binding affinity for the vitamin D serum binding protein (in words) ([2]; listed as 1α,24(S)-dihydroxyvitamin D2): more weakly than does 1,25-(OH)2D3 | binding of DBP relative to 25-OH-D3 ([2]; vitamin D deficient rat serum): at least 1000 times weaker | differentiation of HL-60 promyelocytes to monocytes (HL-60 promyelocytes): potent activity in promoting differentiation | blood level of metabolite ([3]; one day after a single 2 μg dose of 1α-OH-D2): undetectable | blood level of metabolite (average) ([3]; one day following the last dose of 8 μg/day 1α-OH-D2 for one week): 9 pg/mL
